Source: ChEMBL document CHEMBL3045468, “I2 catalyzed FriedelCrafts alkylation reaction of substituted anilines with ninhydrin: formation of novel products and their antimicrobial evaluation” (2013)
Values after ≈ are worked out from the molar mass of the structure shown.

What was measured:
Assay type in all cases: functional
Staphylococcus aureus = assay: Antibacterial activity against Staphylococcus aureus 29737 clinical isolate assessed as growth inhibition after 24 hr by agar dilution method; details: Staphylococcus aureus, 29737, 24 h
Shigella dysenteriae = assay: Antibacterial activity against Shigella dysenteriae 15 clinical isolate assessed as growth inhibition after 24 hr by agar dilution method; details: Shigella dysenteriae, 15, 24 h
Bacillus pumilus = assay: Antibacterial activity against Bacillus pumilus 11778 clinical isolate assessed as growth inhibition after 24 hr by agar dilution method; details: Bacillus pumilus, 11778, 24 h

Compound: CC1(C)S[C@@H]2[C@H](NC(=O)[C@H](N)c3ccc(O)cc3)C(=O)N2[C@H]1C(=O)O [AMOXICILLIN]
- MIC (Staphylococcus aureus): 500 µg/mL (≈ 1370 µM)
- MIC (Shigella dysenteriae): 10000 µg/mL (≈ 27400 µM)
- MIC (Bacillus pumilus): 500 µg/mL (≈ 1370 µM)
